For series [1], the system named is coat density. As to conditions: ten-day old Sprague-Dawley rats.
Procedure: On day 20 of life, coat density on the dorsal back of each animal was visually scored as a percentage of the normal coat density for an untreated 20 day old rat. At 30 μg/gm b.w.
The conditions of series [2]: blood plasma, following intravenous infusion or oral administration; cited from earlier work.
Series [3] has as its system radiation-induced oral mucositis. As to conditions: for Muscositis Severity Score: score 0-17, day 16. How it is done: In an assay based upon Alvarez eta/. […] Additional topical formulation was applied with Q-tip to uniformly cover the everted, interior surface of the cheek pouch. After 20 min, the vehicle-coated, immobilized cheek pouch was taped into position over a 1.5 cm diameter window bored through a 2.5 cm thick lead plate. The sleeping hamster was immobilized on a small shelf on the plate that enabled cheek pouch irradiation through the window.
After irradiation, the cheek pouch was rinsed with water, blotted and reverted. The severity of mucositis in the irradiated cheek pouch was scored 16 days later using the following criteria.

The subject of series [4] is cheek pouch oral mucosa. As to the kind of experiment: Blanch response of hamster cheek pouch oral mucosa, Example 15. The class given is in vivo, Syrian Golden hamster. The note with it: 10 mM in 5:1:94 ethanol:HPMC:PBS, after 30 min. On the procedure: Hamsters were anesthetized with sodium pentobarbital, the cheek pouch was everted with forceps, rinsed with water and blotted, and immobilized on a 2 cm diameter inert plastic disk using stainless steel clips (see panels in FIG. 11). […] Digital images were recorded.

The subject of series [5] is chemotherapy-induced alopecia. The note with it: 950 mM topical four times in two hr, 10 day old rat pups, Cytoxan 30 μg/gm b.w. i.p.
The test system of series [6] is human skin. As to conditions: for Skin Blanch Response: human arm skin; for blanching of the skin: human skin, over the 180 min observation period.
Series [7] deals with radiation-induced dermatitis of rat skin. As to conditions: for Radiation Dermatitis Score (% of Irradiated 4.5 cm^2 Area Free of Scab material): rat, 8.7 Gy γ, scored 13 days later.
Series [8] concerns radiation-induced or Cytoxan-induced alopecia. The note with it: neonate rat, day 20 of life. An excerpt: The severity of the alopecia was scored nine days later—on day 20 of life.
Series [9] in a line: Sustained solubility of norepinephrine tartrate in ethanol:PG:water mixtures, Example 7. It counts as physicochemical. As to conditions: 600 mM. How it is done: Solvent composed of ethanol:propylene glycol (PG):water in the percentages (vol:vol:vol)·specified in FIG. 3 was then added to each vial. Vials were heated as necessary to dissolve norepinephrine by touching vials to a boiling water bath for one second increments and then vortexing until clear. Sealed vials were left at room temperature for 24 hours, and at 4° C. for 24 hours. During the two 24 hour incubations, liquid in each vial was examined using a magnifying glass to identify the formation of any crystalline material. If crystals formed, norepinephrine was noted as “insoluble” at that solvent mixture.

The test system of series [10] is dermal vasculature. The series can be described thus: Exclusion of systemic dye from rat skin (colorimeter), Example 18. The note with it: 300 mM in 50:30:20 vehicle, 30 min time point. The class given is in vivo. How it is done: 400 μl of a black dye solution was injected into each test rat as an i.p. bolus at 10 min after topical treatment with either 300 mM norepinephrine or vehicle alone. Colorimeter measurements of skin color in patches were made and the progression was recorded from 0 through 30 min. The change in colorimeter units between the 0 min reading and readings at indicated time points are plotted in FIG. 15. Colorimeter measurements of skin color were made using a CR-400 colorimeter (Minolta Corp.).

Series [11] has as its system radiodermatitis of rat skin. The series can be described thus: Radiodermatitis prevention after 27 Gy 6 MeV electron beam irradiation of rat skin, Example 14. As to conditions: 300 mM topical. The class given is in vivo. How it is done:
Adult rats ([…]) were clipped to remove the coat covering their dorsal backs. Aliquots (100 μl) of topical drug formulation containing 300 mM norepinephrine were applied once to the backs of the rats, and at set time points afterward, a rectangle (1.5 cm×3 cm) within the topical treatment field received a 27 Gy dose of 6 MeV electrons from a linear accelerator. Animals were anesthetized with 30 μg/gm b.w. sodium pentobarbital prior to irradiation. Following irradiation, rats were returned to cages, and 13 days later the severity of radiodermatitis within the irradiated rectangular field was visually scored and photographed. A “Radiodermatitis Severity Score” between 0 and 100 represents the percentage of the irradiated field that is covered by scab material on day 13 following irradiation.

In series [12] the test system is adrenergic receptor. As to conditions: cited from earlier work.
In series [13] the test system is radiation-induced oral mucositis. The series can be described thus: Radiation-induced oral mucositis in hamster cheek pouch, Example 16. As to conditions: hamster cheek pouch.
Series [14] in a line: Dissolution and 24 hr solution status of vasoconstrictor salts in ethanol:PG:water diluents, Example 6. It counts as physicochemical. As to conditions: at the concentrations required to induce an acceptable blanch response. How it is done: Aliquots of each vasoconstrictor salt were weighed into glass test tubes. The volume of liquid necessary to achieve the indicated final drug concentration was then added.
(§1) The approximate amount of heat required to dissolve the vasoconstrictor salt in each diluent is indicated. Once diluted, samples were sealed and held at room temperature (22° C.) for 24 hours and then at 4° C. for 24 hours. Skin blanch induced by the topical formulation was assessed by applying freshly made, clear formulation to human skin shortly after initial mixing. Drug solutions were monitored for the appearance of precipitated material over a 48 hour observation period.

The subject of series [15] is human skin. The series can be described thus: Human skin blanch 20 min after topical application, Example 6. The class given is in vivo. The note with it: applied to unbroken human skin. How it is done: as §1

Structures are written as SMILES. Entries after “also recorded” stand apart in the source; their conditions may differ. Where a name gives a salt, the structure may show the parent alone. Read-outs that look alike come from different tables or passages of the source. Bounds are passed on as bounds.

Here are results for four compounds from patent US11197836B2, “Topical vasoconstrictor preparations and methods for protecting cells during cancer chemotherapy and radiotherapy” (WISCONSIN ALUMNI RESEARCH FOUNDATION, priority 2005, dated 2021).

Regarding `O=P1(N(CCCl)CCCl)NCCCO1` (centres unmarked) [Cytoxan, cyclophosphamide], the “coat on day 20” value in series [1] (20 μg/gm b.w. and lower doses i.p.) was “full coats”; in [1] (30 μg/gm b.w. and higher doses i.p.), “nude”. Moreover, in series [2], the clearance half-life result was “about one”.

As for `CNC[C@H](O)c1ccc(O)c(O)c1` [epinephrine, epinephrine-HCl], the “Muscositis Severity Score” value in series [3] (0.05 mM, vehicle 5:5:3:87 ethanol:propylene glycol:HPMC:PBS, irradiation 20 min, Experiment C) is reported as 7.5; in [3] (0.10 mM, vehicle 5:5:3:87, irradiation 20 min, Experiment C) it was 5.0; in [3] (0.20 mM, vehicle 5:5:3:87, irradiation 20 min, Experiment C), 3.0; in [3] (0.40 mM, vehicle 5:5:3:87, irradiation 20 min, Experiment C), 0; in [3] (13.5 mM epinephrine + 12.3 mM epinephrine, vehicle 0:5:3:92, irradiation 24 min, Experiment B), 11.7 ± 0.7; in series [3] (100.00 mM, vehicle 5:0:1:94, irradiation 24 min, Experiment A) it was 14.5 ± 2.4. For the same compound, the “Muscositis Severity Score” value in [3] (500.00 mM, vehicle 5:0:1:94, irradiation 24 min, Experiment A) worked out at 9.0. Further, in series [3] (hamster cheek pouch), the “lowest topical concentration with discernible radioprotection of a mucosal site” value came to 50 µM. The “appearance of cheek pouch (blanch)” value in series [4] was “white and translucent”. In [5], the “coat protection on day 20” value is listed as “partial coat protection”. Besides, the “Skin Blanch Response” value turned out to be 10% in series [6] (2 mM in 50:25:25 ethanol:propylene glycol:water, 45 min); 40% in series [6] (2 mM in 50:25:25 ethanol:propylene glycol:water, 60 min); 75% in series [6] (2 mM in 50:25:25 ethanol:propylene glycol:water, 150 min); 40% in [6] (10 mM in 50:25:25 ethanol:propylene glycol:water, 45 min); 60% in series [6] (10 mM in 50:25:25 ethanol:propylene glycol:water, 60 min); 90% in series [6] (10 mM in 50:25:25 ethanol:propylene glycol:water, 150 min). Further, the “Skin Blanch Response” value in [6] (50 mM in 50:25:25 ethanol:propylene glycol:water, 45 min) is recorded as 30%; in [6] (50 mM in 50:25:25 ethanol:propylene glycol:water, 60 min), 50%; in [6] (50 mM in 50:25:25 ethanol:propylene glycol:water, 150 min), 85%; in series [6] (0.1% (4.55 mM) in water, 45 min) it was 0%; in series [6] (0.1% (4.55 mM) in water, 60 min), 0%; in series [6] (0.1% (4.55 mM) in water, 150 min), 0%. The “Skin Blanch Response” value in [6] (0.1% (4.55 mM) in water, 180 min) is given as 0%; in series [6] (100 mM in 50:25:25 ethanol:propylene glycol:water, 45 min) it was 85%; in series [6] (100 mM in 50:25:25 ethanol:propylene glycol:water, 60 min), 90%; in [6] (100 mM in 50:25:25 ethanol:propylene glycol:water, 150 min) it was 90%; in series [6] (1000 mM in 50:25:25 ethanol:propylene glycol:water, 45 min), 85%; in [6] (1000 mM in 50:25:25 ethanol:propylene glycol:water, 60 min), 90%. In addition, the “Skin Blanch Response” value in series [6] (1000 mM in 50:25:25 ethanol:propylene glycol:water, 150 min) is 95%. In addition, in series [6] (0.1% aqueous solution), the “blanching of the skin” value was “no detectable blanching”. For the same compound, the “Radiation Dermatitis Score (% of Irradiated 4.5 cm^2 Area Free of Scab material)” value in series [7] (20 mM, vehicle 50:30:20, four topical applications) worked out at 32%; in series [7] (300 mM, vehicle 25:30:45, four topical applications) it was 95%; in series [7] (1000 mM, vehicle 50:30:20, four topical applications), 100%. Moreover, the “concentration applied to skin required to confer protection against radiation dermatitis” value in series [7] (rat skin) is above 20 mM. For the same compound, the “Alopecia Score (% Normal Coat Density in Topical Treatment Area)” value is listed as 6% in [8] (20 mM, vehicle 50:25:25, Irradiation 7.5 Gy whole-body); 33% in series [8] (100 mM, vehicle 50:25:25, Irradiation 7.5 Gy whole-body); 45% in series [8] (500 mM, vehicle 50:25:25, Irradiation 7.5 Gy whole-body); 95% in [8] (1000 mM, vehicle 0:100:0, Irradiation 7.5 Gy whole-body); 40% in series [8] (1000 mM, vehicle 25:30:45, Cytoxan 32 μ/gm b.w. i.p.); 100% in series [8] (1000 mM, vehicle 25:30:45 ethanol:propylene glycol:water, alopecia-inducing agent None). Further, the “Alopecia Score (% Normal Coat Density in Topical Treatment Area)” value in series [8] (1000 mM, vehicle 50:25:25, Irradiation 7.5 Gy whole-body) is 94%.

As for `NC[C@H](O)c1ccc(O)c(O)c1` [norepinephrine], the “solubility (no crystals over 24 hr room temperature and 24 hr 4° C.)” value in [9] (55:20:25 ethanol:PG:water) is “not soluble”; in series [9] (around 50:30:20 ethanol:PG:water), “areas of solubility”; in [9] (around 60:10:30 ethanol:PG:water) it was “areas of solubility”. Further, the “reduction of delivery of systemic, blood-borne dye to treated skin” value in series [10] amounted to 39%. Moreover, the “protection against Grade 2 dermatitis” value in [11] is “complete protection”. For the same compound, the “agonism of the β2 receptor” value in series [12] is listed as “not an agonist of the β2 receptor”. Further, the “binding affinity (potency) for the α1 adrenergic receptor” value in series [12] is “slightly better than for epinephrine”.

`CNC[C@H](O)c1cccc(O)c1` [phenylephrine, phenylephrine-HCl]: the “Muscositis Severity Score” value in [3] (12.3 mM, vehicle 0:5:3:92, irradiation 24 min, Experiment B) was determined as 5.0 ± 0.1. Further, the “appearance of cheek pouch (blanch)” value in series [4] is “white and translucent”. The “protection against γ radiation-induced mucositis” value in series [13] (10 mM topical) is on record as “completely protective; also recorded: completely preventing”. Further, the mucosal pathology entry was “severe mucosal pathology” in [13] (large excess doses combined with 24 min of irradiation (40 Gy)) and “no discernible mucosal pathology” in [13] (large excess doses without irradiation). Moreover, in [14], the “solubility in topical vehicles” value is reported as “not stably soluble”. The “Skin Blanch Response” value is on record as 0% in series [6] (30 mM in 60:30:10 vehicle, 180 min); 35% in [6] (150 mM in 60:30:10 vehicle, 180 min); 0% in series [6] (0.25% (12.3 mM) in water, 180 min); 50% in [6] (300 mM in 60:30:10 vehicle, 180 min); 60% in [6] (1000 mM in 60:30:10 vehicle, 180 min); 70% in [6] (2500 mM in 60:30:10 vehicle, 180 min). For the same compound, the “blanching of the skin” value in series [6] (0.25% aqueous solution) was “no detectable blanching”. The “potency to induce skin blanch” value in [15] is on record as “lacks the potency to adequately induce skin blanch”.
